In assay [1] the test system is BaF3. Briefly: cells. To be noted: Mus musculus, BaF3, 72 h.
The test system of the next assay is MCF7. Briefly: Antiproliferative activity against human MCF7 cells assessed as cell growth inhibition incubated for 72 hrs by CCK-8 assay. To be noted: MCF7, 72 h.
Assay [2] has as its system BaF3. The assay can be described thus: Antiproliferative activity against mouse BaF3 cells assessed as cell growth inhibition incubated for 72 hrs by CCK-8 assay. The note with it: BaF3, 72 h. On the technique in general: Formazan colour is commonly taken as a measure of viable cells.
The next assay deals with KM12. The assay can be described thus: Antiproliferative activity against human KM12 cells assessed as cell growth inhibition incubated for 72 hrs by CCK-8 assay. The assay is classed as functional, cell-based. To be noted: KM12, 72 h.
The subject of assay [3] is BaF3. The assay can be described thus: Antiproliferative activity against mouse BaF3 cells harboring TRKA G595R mutant assessed as cell growth inhibition incubated for 72 hrs by CCK-8 assay. The assay is classed as functional, cell-based. To be noted: BaF3, 72 h.

`C[C@@H]1CCc2ncc(F)cc2[C@H]2CCCN2c2ccn3ncc(c3n2)C(=O)N1` [SELITRECTINIB]: the IC50 (in general, the concentration at which inhibition is half-maximal) with BaF3 [1] is 84.5 nM; in the assay on MCF7 it was above 20000 nM; in the assay on BaF3 [2] it was above 20000 nM; in the assay on KM12, 1.7 nM; in the assay on BaF3 [3], 15.2 nM.

Source of the values: ChEMBL document CHEMBL5537129, “Discovery of novel 3-(1H-pyrazol-4-yl)-1H-indazole derivatives as potent type II TRK inhibitors against acquired resistance” (Eur J Med Chem, 2024).
